Source: patent US20090105329A1 (priority 2005, published 2009)
“Also recorded” adds a separate entry of the source. Where two headings read alike, the source gives them in different places. One block for each molecule: values may come before it.

How the values were obtained:
[1] = test system: patients with advanced solid malignancies; assay: Phase I study of SAHA in combination with Carboplatin and Paclitaxel: dose-limiting and other toxicities; assay type: in vivo, human; settings: in the combination
Description: The study is designed to define dose-limiting and non-dose limiting toxicities associated with this combination, and to obtain evidence of anti-tumor activity.
Both Carboplatin and Paclitaxel are administered on Day 1 of each treatment cycle. […] Each treatment cycle lasts for 3 weeks.
Definition of dose-limiting toxicity (DLT): Toxicities must be attributable to the study drug(s) to constitute DLT. […] If baseline value is elevated prior to drug therapy, an increase is not considered a DLT unless there is an elevation by more than two grades, and it is of clinical significance. Management and dose modifications associated with the above adverse events are outlined below.
Dosing delays and dose modifications: No intra-patient dose escalation is used. Chemotherapy doses may be reduced for hematological and non-hematological effects. Dose adjustments are to be made according to the system showing the greatest degree of toxicity. Toxicity is graded using the National Cancer Institute Common Toxicity Criteria (NCI CTC) for adverse events (version 3.0). Treatment may be delayed no more than two weeks to allow recovery from toxicity. Dose adjustments for toxicity are made according to the following guidelines.
Methods: Eligible patients were those with advanced solid malignancies who were candidates for combination therapy with Carboplatin and Paclitaxel. […] Carboplatin and Paclitaxel were given on Day 1 of each cycle.

[2] = Plasma pharmacokinetics of SAHA and its two major metabolites (LC-MS/MS) in the phase I study; assay type: in vivo, human
Description: Samples are assayed by the HPLC method (Kelly W K, Richon V M, O'Connor O, et al. Clin. Cancer Res. 2003; 9:3578-88) or by LC/MS assay. […] Quantitation of Paclitaxel and total platinum concentrations is done by validated methodology. […] Compartmental modeling is done with the computer program ADAPT II. Non-compartmental modeling is done with the […] function as implemented by the computer program […]. […] The time that Paclitaxel concentrations remain above 0.05 μM is determined using a limited sampling strategy with the 24-hour sample. […] Methods: Eligible patients were those with advanced solid malignancies who were candidates for combination therapy with Carboplatin and Paclitaxel. […] Carboplatin and Paclitaxel were given on Day 1 of each cycle.

[3] = oral SAHA with food; cited from earlier work
[4] = test system: patients with advanced solid malignancies; settings: on this schedule; cited from earlier work
[5] = test system: carcinogen-induced (N-methylnitrosourea) mammary tumors; settings: rats, SAHA in their diet over the 130 days of the study; cited from earlier work
[6] = human, plasma, po, oral SAHA, patients, plasma, Example 8, read-out: t1/2 (elimination half life) (converted)

SMILES: [NH2][Pt]1([NH2])[O]C(=O)C2(CCC2)C(=O)[O]1 [Carboplatin, platinum, diammine [1,1-cyclobutane-dicarboxylato (2-)-0,0′]-, (SP-4-2)]
- Dose recommended for phase II studies ([1]; Day 1, 3 week cycles): 6 AUC

- t1/2 (elimination half life) ([2]; human, in vivo, po): approximately 2 h
SMILES: O=C(CCCCCCC(=O)Nc1ccccc1)NO[C@@H]1O[C@H](C(=O)O)[C@@H](O)[C@H](O)[C@H]1O [SAHA glucuronide]

- SAHA clearance on Day 1 as compared to Day -4 ([2]; Example 9, most recent data): potential decreased clearance
- half-life [2, 6]: 1.6 ± 0.5 h
- Tmax ([2]; human, plasma, po, read-out: Tmax (time to maximum plasma or serum concentration)): 0.5 to 2 h
- AUC versus dose ([2]; oral SAHA 200-400 mg, patients): increased with dose
- absorption ([2]; oral SAHA, patients): rapidly absorbed
- CL/F (clearance/bioavailability) ([2]; oral SAHA, patients, Example 8): 5.8 ± 1.7 L/min
SMILES: O=C(CCCCCCC(=O)Nc1ccccc1)NO [SAHA, N-Hydroxy-N′-phenyl octanediamide]
- Dose recommended for phase II studies ([1]; PO QD (Days 1-14), 3 week cycles): 400 mg
- bioavailability when taken with food [3]: does not alter the bioavailability
- RP2D of single agent SAHA [4]: 400 mg
- development and continued growth of carcinogen-induced (N-methylnitrosourea) mammary tumors [5]: effective at inhibiting
- effect of Carboplatin and Paclitaxel on SAHA pharmacokinetics ([2]; Day -4 (SAHA alone) vs Day 1 (with Carboplatin and Paclitaxel)): did not alter SAHA pharmacokinetics; also recorded: not altered

- half-life ([2]; human, plasma, po, Example 9, further results, patients after oral SAHA, read-out: t1/2 of acid metabolite (converted)): 4.1 ± 1.3 h
- half-life [2, 6]: ~6 h
- Cmax relative to SAHA Cmax ([2]; metabolite in plasma after oral SAHA, fold greater than SAHA Cmax): 1.5-7 fold
SMILES: O=C(O)CCC(=O)Nc1ccccc1 [4-Anilino-4-oxobutanoic acid]

SMILES: CC(=O)O[C@H]1C(=O)[C@@]2(C)[C@H]([C@H](OC(=O)c3ccccc3)[C@]3(O)C[C@H](OC(=O)[C@H](O)[C@@H](NC(=O)c4ccccc4)c4ccccc4)C(C)=C1C3(C)C)[C@]1(OC(C)=O)CO[C@@H]1C[C@@H]2O [Paclitaxel, 5-beta, 20-epoxy-1,2-alpha, 4,7-beta, 10-beta, 13-alpha-hexahydroxytax-11-en-9-one 4,10-diacetate 2-benzoate 13-ester with (2R,3S)—N-benzoyl-3-phenylisoserine]
- Dose recommended for phase II studies ([1]; Day 1, 3 week cycles): 200 mg/m^2
